Reference: ChEMBL document CHEMBL5625244, “Synthesis of cannabidiol-based compounds as ACE2 inhibitors with potential application in the treatment of COVID-19” (Eur J Med Chem, 2023)
pIC50: −log10 of the molar value. Activity calls are given as the source filed them. No cut-off for these calls is given here.

Experiments:
[1] = biological target: T1, Angiotensin-converting enzyme 2 (Homo sapiens, UniProt Q9BYF1); assay: Inhibition of human ACE2 using Mca-APK(Dnp) as substrate incubated for 30 mins by fluorometer analysis
Target sequence in this assay (Q9BYF1 whole entry): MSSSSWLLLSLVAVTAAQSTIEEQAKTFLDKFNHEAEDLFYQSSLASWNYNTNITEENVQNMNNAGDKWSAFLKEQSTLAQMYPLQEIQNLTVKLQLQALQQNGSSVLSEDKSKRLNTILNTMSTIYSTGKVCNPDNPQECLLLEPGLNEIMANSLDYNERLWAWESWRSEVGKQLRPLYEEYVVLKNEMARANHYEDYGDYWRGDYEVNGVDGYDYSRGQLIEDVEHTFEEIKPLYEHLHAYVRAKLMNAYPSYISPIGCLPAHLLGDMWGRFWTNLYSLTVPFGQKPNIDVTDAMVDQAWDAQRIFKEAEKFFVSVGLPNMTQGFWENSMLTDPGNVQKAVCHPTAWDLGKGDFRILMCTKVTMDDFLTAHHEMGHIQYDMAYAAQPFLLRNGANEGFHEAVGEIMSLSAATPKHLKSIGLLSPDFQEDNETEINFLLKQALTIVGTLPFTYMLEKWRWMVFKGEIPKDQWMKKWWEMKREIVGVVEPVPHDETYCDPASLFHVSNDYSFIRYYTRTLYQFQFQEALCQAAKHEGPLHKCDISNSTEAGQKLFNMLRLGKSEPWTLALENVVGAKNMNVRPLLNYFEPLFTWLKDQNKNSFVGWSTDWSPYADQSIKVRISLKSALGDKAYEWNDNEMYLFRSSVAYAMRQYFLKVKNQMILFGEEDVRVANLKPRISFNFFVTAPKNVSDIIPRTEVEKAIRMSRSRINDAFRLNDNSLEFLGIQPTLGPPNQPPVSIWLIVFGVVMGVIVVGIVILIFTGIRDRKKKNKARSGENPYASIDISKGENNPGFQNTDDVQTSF

SARS-CoV-2 = assay: Antiviral activity against SARS-CoV-2 Wuhan infected in african green monkey Vero cells pre-infected for 1 hr followed by compound addition and measured after 48 hrs by RT-qPCR analysis; assay type: functional, organism-based; conditions: Severe acute respiratory syndrome coronavirus 2, Wuhan
[2] = Cytotoxicity against African green monkey Vero cells assessed as reduction in cell viability upto 100 uM incubated for 48 hrs by Alamar blue assay; assay type: toxicity, cell-based; conditions: chlorocebus sabaeus
[3] = biological target: T1, Angiotensin-converting enzyme 2; assay: Inhibition of human ACE2 using Mca-APK(Dnp) as substrate at 10 nM incubated for 30 mins by fluorometer analysis
Target sequence in this assay (Q9BYF1 18-805 limits assumed): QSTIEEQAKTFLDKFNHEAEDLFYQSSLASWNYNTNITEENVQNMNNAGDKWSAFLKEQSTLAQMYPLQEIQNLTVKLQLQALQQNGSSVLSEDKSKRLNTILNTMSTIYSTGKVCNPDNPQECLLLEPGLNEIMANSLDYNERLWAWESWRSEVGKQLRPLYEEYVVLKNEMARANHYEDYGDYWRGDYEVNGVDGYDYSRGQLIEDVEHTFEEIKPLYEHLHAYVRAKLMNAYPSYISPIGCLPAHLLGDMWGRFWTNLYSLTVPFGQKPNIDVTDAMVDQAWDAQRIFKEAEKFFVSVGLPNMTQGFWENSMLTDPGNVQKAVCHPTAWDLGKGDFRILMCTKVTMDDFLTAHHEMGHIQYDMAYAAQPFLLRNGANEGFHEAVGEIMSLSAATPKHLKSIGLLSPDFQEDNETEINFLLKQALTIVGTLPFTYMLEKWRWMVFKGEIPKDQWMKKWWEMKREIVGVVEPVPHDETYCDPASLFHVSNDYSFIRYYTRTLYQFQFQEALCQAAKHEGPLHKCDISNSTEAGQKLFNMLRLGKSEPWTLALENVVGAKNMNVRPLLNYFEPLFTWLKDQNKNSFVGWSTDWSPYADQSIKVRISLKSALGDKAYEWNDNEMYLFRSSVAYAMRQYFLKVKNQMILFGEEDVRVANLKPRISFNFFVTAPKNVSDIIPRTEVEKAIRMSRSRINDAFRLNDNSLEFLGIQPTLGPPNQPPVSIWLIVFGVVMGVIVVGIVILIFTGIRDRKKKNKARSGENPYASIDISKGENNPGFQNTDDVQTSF

Row | Structure (SMILES) | pIC50 [1] | pIC50 (SARS-CoV-2) | Activity [2] | inhibition [3]
1 | C=C(C)[C@@H]1CCC(C)=C[C@H]1c1c(OCC)cc(CCCCC)cc1OCC | 6.74 | 5.03 | Non-Toxic | 
2 | CCCCCc1cc(O)cc2c1C1CC(C)(C)CC(C)(C1)O2 (stereo unspecified) | 8.00 |  |  | Active
3 | CC(=O)NCC(=O)N[C@@H](CC(=O)O)C(=O)N[C@@H](Cc1ccc(O)cc1)C(=O)N[C@@H](CO)C(=O)N[C@@H](Cc1cnc[nH]1)C(=O)N[C@H]1CSSC[C@@H](C(=O)N[C@H](C(=O)N[C@@H](Cc2ccc(O)cc2)C(=O)N2CCC[C@H]2C(=O)N[C@@H](CC(=O)O)C(=O)N2CCC[C@H]2C(=O)N[C@@H](CCC(=O)O)C(=O)NCC(=O)NCC(=O)NCC(N)=O)[C@@H](C)O)NC(=O)[C@H](CCCCN)NC(=O)[C@H](Cc2c[nH]c3ccccc23)NC(=O)[C@H](Cc2c[nH]c3ccccc23)NC(=O)[C@@H]2CCCN2C(=O)[C@H](Cc2ccc(O)cc2)NC(=O)[C@H](Cc2ccc(O)cc2)NC(=O)[C@H](CCCNC(=N)N)NC(=O)[C@H](CC(C)C)NC(=O)[C@@H]2CCCN2C(=O)[C@H](CO)NC1=O | 5.08 |  |  | 
4 | C=C(C)[C@@H]1CCC(C)=C[C@H]1c1c(O)cc(CCCCC)cc1O [CANNABIDIOL] | < 4.52 | 4.14 | Non-Toxic | 
5 | C=C(C)[C@@H]1CCC(C)=C[C@H]1c1c(OCCCC)cc(CCCCC)cc1OCCCC | 6.77 |  |  | 
6 | CCCCCc1cc(O)c(C2C=C(C)CC(C)(C)C2)c(O)c1 (stereo unspecified) | 5.40 |  |  | 
7 | C=C(C)[C@@H]1CC=C(C)C(c2c(O)cc(CCCCC)cc2O)C1 (stereo partly specified) |  | 5.20 | Non-Toxic | 
8 | CCCCCc1cc(O)c([C@@H]2C=C(C)CC[C@H]2[C@@H](C)CCN2CCC(C)CC2)c(O)c1 | < 4.52 | 5.19 | Non-Toxic | 
9 | CCCCCc1cc(OC(C)=O)c([C@@H]2C=C(C)CC[C@H]2[C@@H](C)CC=O)c(OC(C)=O)c1 | 7.40 |  |  | 
10 | CCCCCc1cc(O)c([C@@H]2C=C(C)CC[C@H]2C(C)C)c(O)c1 | 5.86 | 5.72 | Non-Toxic | 
11 | C=C(C)[C@@H]1CCC(C)=C[C@H]1c1c(OCC(=O)OCC)cc(CCCCC)cc1OCC(=O)OCC | 6.43 |  |  | 
